Results on one compound are retold here after PMC3368601 (Chemistry & biology, 2011).

This assay concerns the target AAK1 (adaptor-associated kinase 1) (Homo sapiens, UniProt Q2M2I8). The assay can be described thus: ADP-Glo kinase assay with recombinant AAK1 and AP2M1 peptide. The class given is biochemical. Background: ADP-Glo turns the ADP formed in a reaction into a luminescent signal.

AAK1 (adaptor-associated kinase 1), sequence (Q2M2I8 46-315 limits assumed): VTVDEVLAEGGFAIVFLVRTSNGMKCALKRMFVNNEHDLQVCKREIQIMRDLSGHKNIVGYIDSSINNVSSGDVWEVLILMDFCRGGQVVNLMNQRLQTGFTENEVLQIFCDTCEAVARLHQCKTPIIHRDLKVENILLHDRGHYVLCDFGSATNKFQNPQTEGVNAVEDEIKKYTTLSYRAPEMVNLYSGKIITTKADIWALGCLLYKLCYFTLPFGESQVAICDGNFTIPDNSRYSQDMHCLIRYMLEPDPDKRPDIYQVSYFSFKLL

With `COC(=O)C1(O)C[C@H]2O[C@]1(C)n1c3ccccc3c3c4c(c5c6ccccc6n2c5c31)C(=O)NC4` (stereo partly shown) [compound 1, K252a], the IC50 – broadly, the point on the concentration scale where inhibition reaches its midpoint – was below 10 nM.
